Test results published in patent US8614216B2.

Experiments:
[1] = Solid state chemical stability, HPLC analysis; assay type: physicochemical; details: open flask
From the text: (§1) Samples were pulled at pre-determined time-points and analyzed for chemical stability.

[2] = Dynamic vapor sorption (DVS) hygroscopicity experiment; assay type: physicochemical
Protocol: All DVS measurements were carried out at 2.5% relative humidity change per hour.

[3] = Moisture induced weight change in lactate salts; assay type: physicochemical; details: 55% RH; listed as Lactate-trial 3
[4] = Solution state chemical stability, HPLC analysis; assay type: physicochemical; details: sealed vial
From the text: as §1

[5] = Compaction studies (Carver Press, tablet hardness tester); assay type: physicochemical; details: 200 mg at 5000 psi, 0.8 cm die
Protocol: The resulting tensile strength and thickness of the compacts were measured using a VK 200 Tablet Hardness Tester and Mitutoyo thickness gauge.

[6] = physchem; details: 23 °C, water, thermodynamic from solid
[7] = Physical stability of the amorphous form on storage

Question: Which results are given for CN1CCN(c2ccc3nc(-c4c(N)c5c(F)cccc5[nH]c4=O)[nH]c3c2)CC1 [Bis-lactate]?
Answer: Area % at Time = 0 ([1]; 40° C./70% Relative humidity): 98.99 Area %; Area % at Time = 6 weeks ([1]; 40° C./70% Relative humidity): 97.92 Area %

Question: Which results are given for CC(O)C(=O)O.CN1CCN(c2ccc3nc(-c4c(N)c5c(F)cccc5[nH]c4=O)[nH]c3c2)CC1 [Form A]?
Answer: Hygroscopicity in DVS experiment ([2]; below about 80% r.h., 2.5% relative humidity change per hour): not hygroscopic; Water uptake in DVS experiment ([2]; exposure to r.h. conditions above 90%): significant water uptake; Moisture induced % weight change [3]: 0.08%; Area % at Time = 0 ([1]; 30° C./60% Relative humidity): 98.41 Area %; Area % at Time = 6 weeks ([1]; 30° C./60% Relative humidity): 99.04 Area %; Area % at Time = 0 ([1]; 40° C./70% Relative humidity): 98.46 Area %; Area % at Time = 6 weeks ([1]; 40° C./70% Relative humidity): 98.55 Area %; Area % at Time = 0 ([4]; 5° C.): 98.80 Area %; Area % at Time = 7 days ([4]; 5° C.): 98.60 Area %; Area % at Time = 0 ([4]; ambient temperature): 98.80 Area %; Area % at Time = 7 days ([4]; ambient temperature): 98.71 Area %; Forms Compact ([5]; listed as Lactate-trial 1): Yes; Tensile strength of compact ([5]; listed as Lactate-trial 1): 13.8 SC—Strong Cobb; Thickness of compact ([5]; listed as Lactate-trial 1): 3.06 mm; Forms Compact ([5]; listed as Lactate-trial 2): Yes; Tensile strength of compact ([5]; listed as Lactate-trial 2): 17.9 SC—Strong Cobb; Thickness of compact ([5]; listed as Lactate-trial 2): 2.92 mm; Forms Compact ([5]; listed as Lactate-trial 3): Yes; Tensile strength of compact ([5]; listed as Lactate-trial 3): 16.1 SC—Strong Cobb; Thickness of compact ([5]; listed as Lactate-trial 3): 2.97 mm; Forms Compact ([5]; listed as lactate salt): forms strong compacts without a tendency to cap or chip; solubility [6]: > 400 mg/mL

Question: With CN1CCN(c2ccc3nc(-c4c(N)c5c(F)cccc5[nH]c4=O)[nH]c3c2)CC1 [Free base] as the compound, how does the “Area % at Time = 0” value ([1]; 30° C./60% Relative humidity) read?
Answer: Its value is 97.38 Area %.

Question: What about the “Area % at Time = 6 weeks” value ([1]; 30° C./60% Relative humidity) of the same compound?
Answer: Its value is 97.83 Area %.

Question: And the “Area % at Time = 0” value ([1]; 40° C./70% Relative humidity)?
Answer: Its value is 97.77 Area %.

Question: What about the “Area % at Time = 6 weeks” value ([1]; 40° C./70% Relative humidity) of the same compound?
Answer: Its value is 98.23 Area %.

Question: Which Time stable ([7]; 75% relative humidity and 40° C.) does the source give for CC(O)C(=O)O.CN1CCN(c2ccc3nc(-c4c(N)c5c(F)cccc5[nH]c4=O)[nH]c3c2)CC1 [amorphous form] here?
Answer: The Time stable was “more than 2 days”.

Question: And the “Stability of the solid form” value ([7]; ambient conditions)?
Answer: Its value is “stable”.
